Experimental data taken from patent publication US20250034161A1, “SPIROCYCLIC COMPOUND AS KRAS-G12C INHIBITOR” (Shanghai Euregen Biopharma Co., Ltd., priority 2020, published 2025).

Columns and labels:
[1] = Pharmacokinetic properties in rats (IV and PO, LC-MS/MS); format: in vivo; details: for F: SD rats; for AUC(0-inf) / Cmax / clearance / half-life / Vd: male, Sprague-Dawley (SD), rat, plasma; for Vd: read-out: Vz
Procedure: • 1. Test purpose: to determine the pharmacokinetic characteristics of some of the example compound of the present invention in SD rats after single intravenous injection(IV) and oral administration(PO) by LC-MS/MS method. • 2. […] Animal production license number (SCXK (Shanghai) 2018-0006). • 3. Test method:
Preparation of 0.5% methyl cellulose: 5 g of methyl cellulose were weighed and dissolved in 1000 mL of purified water.
Preparation of oral formulation: A required amount of test compound was weighed and dissolved in 0.5% methyl cellulose solution to obtain a suspension or solution of 0.5 mg/mL.
Preparation of intravenous injection formulation: A required amount of test compound was weighed, and dissolved in 0.5 mL of dimethyl sulfoxide to prepare a solution of 4 mg/mL. 0.25 mL of the above solution was added into 0.5 mL of polyethylene glycol 15 hydroxystearate (solutol) and 4.25 mL of normal saline to obtain a solution of 0.2 mg/mL.
The dosage and volume administered were shown in the table below Feeding, 4 hours after administration
Sample Collection: blood is collected through jugular vein or other suitable vein, and 0.2 mL of blood was collected at each time point. Samples were placed into tubes containing ethylenediaminetetraacetic acid dipotassium salt and kept on ice before centrifugation. Within 1 hour after blood collection, the blood samples were centrifuged at 2-8° C. and 6800 g for 6 minutes and stored at −80° C. The time point for blood collection was 0.083, 0.25, 0.5, 1, 2, 4, 8 and 24 hours after intravenous administration, and 0.25, 0.5, 1, 2, 4, 6, 8 and 24 hours after oral administration.

[2] = Whole blood stability assay, dog whole blood; format: in vitro ADME; details: 37° C.
Procedure: • 1. Test purpose: to determine the whole blood stability of the compounds by monitoring the clearance rate of the parent compound after incubation of some of the example compounds of the invention with dog and rat whole blood. • 2. […] Test method:
Then, the stock solution of the test compound was diluted to 1 mmol/L and 0.2 mmol/L with 70% acetonitrile aqueous solution, respectively, as working solution.
The working solution was added to the whole blood. The concentration of each test compound was 5 μmol/L. 90 μL was taken and then mixed evenly with 90 μL of water. Then 600 μL of acetonitrile termination solution containing propranolol as internal standard was added. Incubated at 37° C. in a water bath and shook gently. At 30, 60, 120 and 240 minutes, 90 μL of each mixture was placed on a clean 96-well plate prefilled with 90 μL of water, mixed well, and then 600 μL of acetonitrile termination solution containing propranolol as internal standard was added and centrifuged at 5000 g for 15 min. 80 μL of the supernatant was taken and placed in a 96-well plate preloaded with 160 μL of ultrapure water, then analyzed by LC-MS/MS.

[3] = Plasma protein binding assay (equilibrium dialysis), mouse plasma; format: in vitro ADME; details: pH 7.4, Mice plasma, equilibrium dialysis 5 hours, read-out: Plasma protein binding rate (%) (converted)
Procedure: (§1) • 1. Test purpose: to evaluate the protein binding rate of the test compound in human, dog, monkey, rat and mouse plasma by equilibrium dialysis; • 2. […] Experimental methods: • 0.1 mol/L sodium phosphate and 0.15 mol/L sodium chloride buffer with pH 7.4±0.1 was preheated;
(§2) Preparation of plasma containing test substance: the test compound was dissolved in DMSO to prepare a 10 mmol/l stock solution. 5 μL of stock solution was taken and diluted with 95 μL of acetonitrile to obtain solution A (0.5 mmol/L). 8 μL of solution A was taken and diluted with 192 μL of 0.1 mol/L sodium phosphate buffer to obtain solution B (0.02 mmol/L). 570 μL of plasma was added into a 96-well plate followed by the addition of 30 μL of solution B. The final concentration was 1 μmol/L with 0.01% DMSO.
(§3) The plate was shook at 600 rpm for 10 minutes, covered and stored in a freezer (−20° C.).
(§4) T5 sample preparation (in triplicate): the dialysis device was added with 100 μL of buffer on its receiver side and 100 μL of plasma containing the test compound on its doner side. And the dialysis device was then shook at 37° C. and 120 rpm for 5 hours. At the end of culture, 25 μL of plasma containing the test substance was taken from the plasma side and then added to a 96-well plate, followed by the addition of 25 μL of buffer and 200 μL of acetonitrile solution containing internal standard. […]

[4] = Plasma protein binding assay (equilibrium dialysis), rat plasma; format: in vitro ADME; details: pH 7.4, equilibrium dialysis 5 hours, read-out: Plasma protein binding rate (%) (converted)
Procedure: as §1, §2, §3, §4

[5] = Plasma protein binding assay (equilibrium dialysis), dog plasma; format: in vitro ADME; details: pH 7.4, equilibrium dialysis 5 hours, read-out: Plasma protein binding rate (%) (converted)
Procedure: as §1, §2, §3, §4

[6] = Plasma protein binding assay (equilibrium dialysis), monkey plasma; format: in vitro ADME; details: pH 7.4, equilibrium dialysis 5 hours, read-out: Plasma protein binding rate (%) (converted)
Procedure: as §1, §2, §3, §4

hERG potassium channel = hERG potassium channel (Homo sapiens, UniProt Q12809); assay: hERG experiment, manual membrane clamp on HEK293 cells
Chain of hERG potassium channel (Q12809 whole entry): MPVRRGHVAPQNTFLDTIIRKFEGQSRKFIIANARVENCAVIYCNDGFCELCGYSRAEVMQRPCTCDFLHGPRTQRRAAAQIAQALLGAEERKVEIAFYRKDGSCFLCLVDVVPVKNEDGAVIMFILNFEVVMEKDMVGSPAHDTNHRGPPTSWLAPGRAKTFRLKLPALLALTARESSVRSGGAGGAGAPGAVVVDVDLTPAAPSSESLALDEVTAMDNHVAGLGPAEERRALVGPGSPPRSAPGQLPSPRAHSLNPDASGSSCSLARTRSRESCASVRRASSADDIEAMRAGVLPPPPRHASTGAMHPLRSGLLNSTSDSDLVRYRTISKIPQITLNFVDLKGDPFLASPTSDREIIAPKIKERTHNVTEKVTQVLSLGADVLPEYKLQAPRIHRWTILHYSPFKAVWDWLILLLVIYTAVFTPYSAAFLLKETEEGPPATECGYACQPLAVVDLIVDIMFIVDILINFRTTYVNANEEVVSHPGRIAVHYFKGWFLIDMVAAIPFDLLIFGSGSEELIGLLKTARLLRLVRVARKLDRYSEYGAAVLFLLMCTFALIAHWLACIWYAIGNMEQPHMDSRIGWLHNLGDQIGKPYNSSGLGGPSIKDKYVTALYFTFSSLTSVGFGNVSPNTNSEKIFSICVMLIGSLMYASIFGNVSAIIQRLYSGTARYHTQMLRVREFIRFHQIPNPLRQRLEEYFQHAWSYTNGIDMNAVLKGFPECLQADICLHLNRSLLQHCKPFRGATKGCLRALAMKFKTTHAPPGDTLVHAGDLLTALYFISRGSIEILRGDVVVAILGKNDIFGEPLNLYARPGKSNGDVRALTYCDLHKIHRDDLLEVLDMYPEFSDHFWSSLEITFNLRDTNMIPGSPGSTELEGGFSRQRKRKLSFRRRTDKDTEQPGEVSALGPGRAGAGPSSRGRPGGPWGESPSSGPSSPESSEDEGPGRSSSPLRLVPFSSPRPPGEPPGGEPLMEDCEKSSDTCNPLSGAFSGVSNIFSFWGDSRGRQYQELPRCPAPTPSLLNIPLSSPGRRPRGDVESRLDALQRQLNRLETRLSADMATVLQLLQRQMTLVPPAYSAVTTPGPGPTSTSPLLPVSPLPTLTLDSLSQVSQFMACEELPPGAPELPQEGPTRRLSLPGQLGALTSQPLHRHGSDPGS
Text: hERG Experiment • 1. Test purpose: to test the inhibition of hERG current on HEK293 cells stably transfected with hERG potassium channel by manual membrane clamp; • 2. […] Manual membrane clamp system amplifier was purchased from Molecular Devices (Model No. MultiClamp700B); Manual membrane clamp system digital-to-analog converter was purchased from Molecular Devices (Model No. Axon Digidata1550B); Rapid perfusion system was purchased from ALA Scientific Ins. […] Experimental methods:
The cells were resuspended with culture medium and stored in a centrifuge tube, the supernatant was discarded after centrifugation, then the cells were resuspended with extracellular liquid for later use, and stored at 2-8° C.
The whole-cell membrane clamp technique was applied to record hERG currents. The cell suspension was added into small Petri dishes and placed on an inverted microscope stage. After cells were adhered, they were perfused with extracellular fluid at a recommended flow rate of 1-2 mL/min. The glass microelectrode was drawn in two steps by a micropipette puller, and its resistance value in water was 2-5 MΩ after filling with electrode internal fluid.
After the whole-cell recording mode was established, the clamp potential was maintained at −80 mV. […]
Stimulus release and signal acquisition were performed on PatchMaster software. […] Data was expressed as mean and standard deviation. […]

Row | Structure (SMILES) | F ([1]; oral gavage, 5 mg/kg) [%] | AUC(0-inf) ([1]; intravenous injection, 1 mg/kg) [ng·h/mL] | Cmax ([1]; intravenous injection, 1 mg/kg) [ng/mL] | clearance ([1]; intravenous injection, 1 mg/kg) [mL/min/kg] | half-life ([1]; intravenous injection, 1 mg/kg) [h] | Vd ([1]; intravenous injection, 1 mg/kg) [L/kg] | AUC(0-inf) ([1]; oral gavage, 5 mg/kg) [ng·h/mL] | Cmax ([1]; oral gavage, 5 mg/kg) [ng/mL] | half-life ([1]; oral gavage, 5 mg/kg) [h] | half-life at 5 μmol/L [2] [h] | fraction unbound at 5 h, 1 μmol/L [3] | fraction unbound at 5 h, 1 μmol/L [4] | fraction unbound at 5 h, 1 μmol/L [5] | fraction unbound at 5 h, 1 μmol/L [6] | IC50 (hERG potassium channel) [µM]
1 | C=CC(=O)N1CCN(c2nc(=O)n(-c3c(C)ccnc3C(C)C)c3nc(-c4c(O)cccc4F)c(F)cc23)[C@@H](C)C1 [AMG510] | 35.41 | 319 | 762 | 50.7 | 0.36 | 1.57 | 584 | 1260 | 1.81 | 1.46 | 0.091 | 0.141 | 0.079 | 0.017 | > 30
2 | C=C(F)C(=O)N1CCN(c2nc(OC[C@@H]3CCCN3C)nc3c2CCN(c2cccc4cccc(Cl)c24)C3)C[C@@H]1CC#N [MRTX849] | 13.66 | 348 | 137 | 48.1 | 3.16 | 13.1 | 238 | 23.3 | 2.8 | 6.15 | 0.004 | 0.01 | 0.012 | 0.013 | 0.99
